According to patent US10422791B2, “Haptens and conjugates derived from pyocyanin, antibodies thereof, and immunochemical method for detecting infections caused by Pseudomonas aeruginosa” (priority 2013, dated 2019):

Columns and labels:
As230 antiserum = assay: Cross-reactivity determinations in the indirect competitive ELISA As230/PC1-BSA (AE); format: binding, New Zealand white rabbits; details: for % RC (cross-reactivity): (IC50 1-hydroxyphenazine/IC50 phenazine compound)x100; for IC50: calibration curves in PBST, coating antigen PC1-BSA (AE), antiserum As230
Description: The MALDI-TOF-MS mass spectrometer (mass spectrometer with laser assisted by ionization/desorption matrix with flight time) which it uses to characterize the conjugates of protein was a Bruker 200-Hz SmartBeam (Bruker-Daltonics, Leipzig, Germany). The detection was performed in the positive ion mode, ionized with a laser power set at 70% of the maximum laser intensity of the instrument at a frequency of 10-100 Hz. The pH and the conductivity of all the buffers and solutions was measured with a 540 GLP phMeter and a LF 340 conductivity meter, respectively (WTW, Weilheim, Germany). The polystyrene microtiter plates were from Nunc (Maxisorp, Roskilde, Denmark). The washing steps were carried out using a microplate washer (ELx405 HT (BioTek, Vinooski, Vt., USA)). The absorbencies were read in a SpectramaxPlus (Molecular Devices, Sunnyvale, Calif.) in a wavelength mode of 450 nm. The competition curves were analysed with a four-parameter equation using the SoftmaxPro v4.7 (Molecular Devices) and GraphPad Prism v 4 (GraphPad Software Inc, San Diego, Calif.) software. The standard curve was adjusted to a logistical equation of four parameters according to the formula y=(A−B/[1−(x/C)D])+B, where A is the maximum absorbance, B is the minimum absorbance, C is the concentration which produces 50% of the difference between the maximum and minimum absorbance (or IC50), and D is the gradient in the point of inflection of the sigmoidal curve. Unless indicated otherwise, the data shown correspond to the mean of at least two replicates.
The polyclonal antiserums As230, As231 and As232 were obtained by the immunization of New Zealand white rabbits (female) with weights around 1-2 kg with PC1-HCH (MA) following a protocol already described by Ballesteros et al. (Analytica Chimica Acta 1997, 347, 139). The evolution of the titers of antibodies was assessed by measuring the binding of serial solutions of each antiserum to microtiter plates coated with the homologous BSA conjugate. Once acceptable titers of antibodies are obtained, the animals were exsanguinated and the blood was collected in Vacutainer tubes provided with serum separation gel. The antiserums were obtained by centrifugation and were stored at −80° C. in the presence of 0.02% NaN3.
The microtiter plates were coated with PC1-BSA (AE) (0.125 μg/ml with coating buffer 100 μL/well) during 4 h at 25° C. with adhesive sealants. Then, the plates were washed four times with PBST (300 μL/well) before adding the standards (1-hydroxyphenazine or another type of related analytes, at different concentrations from 1000 nM to 0 nM in PBhST), and the samples at different concentrations (50 μl/well), followed by the As230 antiserum solution (1/8000 dilution in PBhST, 50 μl/well). After 30 min at ambient temperature, the plates were washed a further nine times with PBST and the anti-IgG-HRP solution was added (1/6000 in PBST, 100 μl/well). After 30 min of incubation at ambient temperature, the microplates were again washed four times with PBST and the substrate solution was added (100 μl/well) and the enzyme reaction was stopped after 30 min at ambient temperature by H2SO4 4 N (50 μl/well). The absorbencies were measured at 450 nm. The standard curve was adjusted to a logistical equation of four parameters according to the formula y=(A−B/[1−(x/C) D])+B, where A is the maximum absorbance, B is the minimum absorbance, C is the concentration that produces 50% of the difference between the maximum absorbance and minimum absorbance of the absorbance (or IC50), and D is gradient in the point of inflection of the sigmoidal curve. The limit of detection (LOD) is defined as the concentration which gives 90% response of the maximum absorbance (IC90) (see FIG. 1 and table 1).
Stock solutions were prepared of different compounds structurally related with pyocyanin and 1-hydroxyphenazine (10 mM in dimethyl sulfoxide) and they were stored at 4° C. […]

[1] = Conversion of pyocyanin into 1-hydroxyphenazine by NaOH, controlled by HPLC-UV; format: physicochemical; details: 1 M NaOH, 20 min at a.t., phenazine as internal standard
Description: A 2M NaOH solution (250 μL) was added to a vial containing pyocyanin (10 mM, 25 μL) in 10 mM PBS (85 μL), previously spiked with phenazine (500 μM, 140 μL). The progress of the reaction was monitored by extracting aliquots (10 μL) from the reaction solution at various time intervals, diluting them with 250 mM PBS (90 μL) and adding 1 M HCl (10 μL) to neutralize the pH.
Therefore, it was necessary to develop a simple method to convert pyocyanin in 1-hydroxyphenazine with a good yield. This could be achieved by treating pyocyanin solutions with 1 M NaOH during 20 min at a.t. […] As shown in FIG. 2 (bottom), a good correlation was observed (R^2=0.943) between the sample measurements and the spiked samples for the detection of pyocyanin once hydrolyzed.

| SMILES | % RC (cross-reactivity) (As230 antiserum) | IC50 (As230 antiserum) | conversion of pyocyanin in 1-hydroxyphenazine (hydrolysis of the methyl group) [1] | % RC (cross-reactivity) (As230 antiserum; listed as pyocyanin) |
| --- | --- | --- | --- | --- |
| Oc1cccc2nc3ccccc3nc12 [1-hydroxyphenazine] | 100% | 0.62 nM | – | – |
| COS(=O)(=O)[O-].C[n+]1c2ccccc2nc2ccccc21 [Methyl 5-methylphenazine sulfate] | 0.4% | 140 nM | – | – |
| O=C(O)c1ccc2nc3ccccc3nc2c1 [Phenazine-2-carboxylic acid] | <0.1% | > 800 nM | – | – |
| c1ccc2nc3ccccc3nc2c1 [Phenazine] | <0.1% | > 800 nM | – | – |
| Cn1c2cccc(=O)c-2nc2ccccc21 [Pyocyanin, pyocyanin] | <0.1% | > 800 nM | quantitative | less than 0.1% |
